Values quoted from earlier work as cited in US20170065667A1, “METHODS FOR SYNCHRONIZATION OF ESTROUS CYCLES AND OVULATION FOR FIXED TIME ARTIFICIAL INSEMINATION IN CATTLE” (Parnell Technologies Pty Ltd., priority 2014, published 2017).

System: lactating dairy cows
Details: dinoprost 25 mg, cloprostenol 0.5 mg; cited from earlier work

Structure (SMILES): CCCCC[C@H](O)/C=C/[C@@H]1[C@@H](C/C=C\CCCC(=O)O)[C@@H](O)C[C@H]1O [dinoprost]
- percentage of cows with complete CL regression: 80%
